Test results published in PubChem BioAssay (NCI).
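Compound exposure: 48 hours, 5 concentrations, 96-well plates. TGI denotes the concentration required for complete inhibition of growth.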

Experiments:
Experiment in all cases: NCI tumour cell line growth inhibition, 48 h
SF-295 CNS = tested on: SF-295 CNS
RXF 393 renal = tested on: RXF 393 renal
SNB-75 CNS = tested on: SNB-75 CNS
OVCAR-5 ovarian = tested on: OVCAR-5 ovarian
PC-3 prostate = tested on: PC-3 prostate
NCI-H226 lung = tested on: NCI-H226 lung
OVCAR-4 ovarian = tested on: OVCAR-4 ovarian
IGROV1 ovarian = tested on: IGROV1 ovarian
786-0 renal = tested on: 786-0 renal
HOP-62 NSCLC = tested on: HOP-62 NSCLC
RPMI-8226 leukemia = tested on: RPMI-8226 leukemia
SK-OV-3 ovarian = tested on: SK-OV-3 ovarian
CCRF-CEM leukemia = tested on: CCRF-CEM leukemia
A498 renal = tested on: A498 renal
LOX IMVI melanoma = tested on: LOX IMVI melanoma
MDA-N = tested on: MDA-N
K-562 leukemia = tested on: K-562 leukemia
HCC-2998 colon = tested on: HCC-2998 colon
HCT-15 colon = tested on: HCT-15 colon
ACHN renal = tested on: ACHN renal
TK-10 renal = tested on: TK-10 renal
U251 CNS = tested on: U251 CNS
HT29 colon = tested on: HT29 colon
SK-MEL-5 melanoma = tested on: SK-MEL-5 melanoma
MDA-MB-231 breast = tested on: MDA-MB-231 breast
SR leukemia = tested on: SR leukemia
UACC-257 melanoma = tested on: UACC-257 melanoma
UO-31 renal = tested on: UO-31 renal
UACC-62 melanoma = tested on: UACC-62 melanoma
SK-MEL-28 melanoma = tested on: SK-MEL-28 melanoma
MDA-MB-435 = tested on: MDA-MB-435
DU-145 prostate = tested on: DU-145 prostate
NCI-H460 lung = tested on: NCI-H460 lung
SNB-19 CNS = tested on: SNB-19 CNS
HCT-116 colon = tested on: HCT-116 colon
OVCAR-8 ovarian = tested on: OVCAR-8 ovarian
A549 NSCLC = tested on: A549 NSCLC
M14 melanoma = tested on: M14 melanoma
CAKI-1 renal = tested on: CAKI-1 renal
EKVX NSCLC = tested on: EKVX NSCLC
SN12C renal = tested on: SN12C renal
HS 578T breast = tested on: HS 578T breast
SF-268 CNS = tested on: SF-268 CNS
SW-620 colon = tested on: SW-620 colon
HL-60(TB) leukemia = tested on: HL-60(TB) leukemia
NCI/ADR-RES ovarian = tested on: NCI/ADR-RES ovarian
MALME-3M melanoma = tested on: MALME-3M melanoma
COLO 205 colon = tested on: COLO 205 colon
SF-539 CNS = tested on: SF-539 CNS
KM12 colon = tested on: KM12 colon
BT-549 breast = tested on: BT-549 breast
OVCAR-3 ovarian = tested on: OVCAR-3 ovarian
MOLT-4 leukemia = tested on: MOLT-4 leukemia
MCF7 breast = tested on: MCF7 breast
T-47D breast = tested on: T-47D breast
NCI-H23 lung = tested on: NCI-H23 lung
NCI-H522 lung = tested on: NCI-H522 lung
HOP-92 NSCLC = tested on: HOP-92 NSCLC

C(=C\c1cc(-c2ccc3ccccc3n2)nc2ccc3ccccc3c12)/c1ccc2ccccc2n1
TGI (SF-295 CNS): > 100 µM
TGI (RXF 393 renal): > 100 µM
TGI (SNB-75 CNS): 97.9 µM
TGI (OVCAR-5 ovarian): > 100 µM
TGI (PC-3 prostate): > 100 µM
TGI (NCI-H226 lung): > 100 µM
TGI (OVCAR-4 ovarian): > 100 µM
TGI (IGROV1 ovarian): > 100 µM
TGI (786-0 renal): > 100 µM
TGI (HOP-62 NSCLC): > 100 µM
TGI (RPMI-8226 leukemia): > 100 µM
TGI (SK-OV-3 ovarian): > 100 µM
TGI (CCRF-CEM leukemia): > 100 µM
TGI (A498 renal): > 100 µM
TGI (LOX IMVI melanoma): > 100 µM
TGI (MDA-N): > 100 µM
TGI (K-562 leukemia): > 100 µM
TGI (HCC-2998 colon): > 100 µM
TGI (HCT-15 colon): > 100 µM
TGI (ACHN renal): > 100 µM
TGI (TK-10 renal): > 100 µM
TGI (U251 CNS): > 100 µM
TGI (HT29 colon): > 100 µM
TGI (SK-MEL-5 melanoma): > 100 µM
TGI (MDA-MB-231 breast): > 100 µM
TGI (SR leukemia): > 100 µM
TGI (UACC-257 melanoma): > 100 µM
TGI (UO-31 renal): > 100 µM
TGI (UACC-62 melanoma): > 100 µM
TGI (SK-MEL-28 melanoma): > 100 µM
TGI (MDA-MB-435): > 100 µM
TGI (DU-145 prostate): > 100 µM
TGI (NCI-H460 lung): > 100 µM
TGI (SNB-19 CNS): > 100 µM
TGI (HCT-116 colon): > 100 µM
TGI (OVCAR-8 ovarian): > 100 µM
TGI (A549 NSCLC): > 100 µM
TGI (M14 melanoma): > 100 µM
TGI (CAKI-1 renal): > 100 µM
TGI (EKVX NSCLC): > 100 µM
TGI (SN12C renal): > 100 µM
TGI (HS 578T breast): > 100 µM
TGI (SF-268 CNS): > 100 µM
TGI (SW-620 colon): > 100 µM
TGI (HL-60(TB) leukemia): > 100 µM
TGI (NCI/ADR-RES ovarian): > 100 µM
TGI (MALME-3M melanoma): > 100 µM
TGI (COLO 205 colon): > 100 µM
TGI (SF-539 CNS): > 100 µM
TGI (KM12 colon): > 100 µM
TGI (BT-549 breast): > 100 µM
TGI (OVCAR-3 ovarian): > 100 µM
TGI (MOLT-4 leukemia): > 100 µM
TGI (MCF7 breast): > 100 µM

CC(C)(C)c1ccc(C(C)(C)C)c(N2C(=O)C3ON=C(c4ccc([N+](=O)[O-])cc4)C3C2=O)c1 (centres undefined)
TGI (SF-295 CNS): > 25 µM
TGI (RXF 393 renal): > 25 µM
TGI (SNB-75 CNS): 14.3 µM
TGI (OVCAR-5 ovarian): > 25 µM
TGI (NCI-H226 lung): > 25 µM
TGI (OVCAR-4 ovarian): > 25 µM
TGI (IGROV1 ovarian): 19.4 µM
TGI (786-0 renal): 9.71 µM
TGI (T-47D breast): > 25 µM
TGI (HOP-62 NSCLC): > 25 µM
TGI (RPMI-8226 leukemia): > 25 µM
TGI (SK-OV-3 ovarian): > 25 µM
TGI (CCRF-CEM leukemia): > 25 µM
TGI (A498 renal): 23.2 µM
TGI (NCI-H23 lung): > 25 µM
TGI (LOX IMVI melanoma): > 25 µM
TGI (MDA-N): > 25 µM
TGI (K-562 leukemia): > 25 µM
TGI (NCI-H522 lung): > 25 µM
TGI (HCC-2998 colon): > 25 µM
TGI (HCT-15 colon): > 25 µM
TGI (ACHN renal): > 25 µM
TGI (TK-10 renal): > 25 µM
TGI (HT29 colon): > 25 µM
TGI (SK-MEL-5 melanoma): > 25 µM
TGI (SR leukemia): > 25 µM
TGI (UACC-257 melanoma): > 25 µM
TGI (UO-31 renal): > 25 µM
TGI (UACC-62 melanoma): > 25 µM
TGI (SK-MEL-28 melanoma): > 25 µM
TGI (MDA-MB-435): > 25 µM
TGI (DU-145 prostate): > 25 µM
TGI (NCI-H460 lung): > 25 µM
TGI (SNB-19 CNS): > 25 µM
TGI (HCT-116 colon): > 25 µM
TGI (OVCAR-8 ovarian): > 25 µM
TGI (A549 NSCLC): > 25 µM
TGI (M14 melanoma): > 25 µM
TGI (CAKI-1 renal): > 25 µM
TGI (EKVX NSCLC): > 25 µM
TGI (SN12C renal): > 25 µM
TGI (HS 578T breast): > 25 µM
TGI (SF-268 CNS): > 25 µM
TGI (SW-620 colon): > 25 µM
TGI (HOP-92 NSCLC): > 25 µM
TGI (HL-60(TB) leukemia): > 25 µM
TGI (NCI/ADR-RES ovarian): > 25 µM
TGI (MALME-3M melanoma): > 25 µM
TGI (COLO 205 colon): > 25 µM
TGI (SF-539 CNS): > 25 µM
TGI (KM12 colon): > 25 µM
TGI (BT-549 breast): > 25 µM
TGI (OVCAR-3 ovarian): > 25 µM
TGI (MOLT-4 leukemia): > 25 µM
TGI (MCF7 breast): > 25 µM
